Reference: US20240181000A1, “LGG-DERIVED PEPTIDES AND METHODS OF USE THEREOF” (Ohio State Innovation Foundation, priority 2021, published 2024)
Read-outs that look alike come from different tables or passages of the source. No end group written: not given here.

Key:
[1] = test system: APEC O78; type: cell-based, E. coli
Method: Anti-APEC activity determination: The anti-APEC activity of peptides was determined in LB broth following CLSI guidelines. Briefly, overnight grown APEC O78 was adjusted to 5×10^5 CFU/mL concentration in fresh LB media. One-hundred microliters of APEC suspension was aliquoted into the wells of the 96-well plate. Peptides were added to the wells at 6 mM and 12 mM concentrations and incubated at 37° C. in TECAN Sunrise™ absorbance microplate reader with kinetic absorbance measurement set at every 30 mins for 12 h. Sterile media and DMSO (solvent) were used as controls. The growth inhibitory activity of the peptides against APEC was calculated using the formula: (OD600 DMSO treated well−OD600 peptide treated well)/OD600 DMSO treated well×100%.
The minimum inhibitory concentration (MIC) was determined for selected peptides (P1, P2, P3, and P4) using similar assay as above. Peptides were added to the wells of the 96-well plate at 6 mM, 9 mM, 12 mM, 15 mM, and 18 mM concentrations. The peptide concentration at which there is no visible APEC growth (no OD increase) was determined as MIC. Two independent experiments were conducted.
Arginine and lysine substituted peptide analogues: The non-essential amino acid residues identified in each peptide were substituted with arginine/lysine to test whether these substitutions enhance the anti-APEC activity of peptides. The MICs of arginine and lysine substituted peptide analogues ([…] (SEQ ID NO:37), […] (SEQ ID NO:38), […] (SEQ ID NO:39), KDENK (SEQ ID NO:41), PDEKK (SEQ ID NO:42), KDEKK (SEQ ID NO:43), KHTAPK (SEQ ID NO:45), VKTAPK (SEQ ID NO:46), VHTKPK (SEQ ID NO:47), and KKTKPK (SEQ ID NO:48)) were determined as above and compared with original peptides.

[2] = test system: multiple APEC serotypes; type: cell-based, E. coli
Method: Anti-APEC spectrum determination: Peptides (P1, P2, and P3) were tested against multiple APEC serotypes/strains to determine their spectrum of activity. Peptides were added at their MICs and the growth inhibitory activity of the peptides was determined as described above.

[3] = test system: APEC; type: in vivo, chickens; conditions: in vivo
From the text: FIGS. 57A-57D show the APEC load of chickens (at 7 dpi [days post infection]) treated with either peptides P-1 or P-2.

[4] = test system: APEC; conditions: in vivo
Method: FIGS. 58A-58B show the APEC load after treatment 8 days dpi with LGG and 50 mg/mL of peptides in drinking water.

[5] = test system: Salmonella Javiana; type: cell-based
Method: (§1) Peptide protection against varied Salmonella serovars: To further test the spectrum of the peptides anti-Salmonella capabilities, eight additional Salmonella serovars commonly implicated in foodborne illness (S. Anatum, S. Albany, S. Brenderup, S. Javiana, S. Heidelberg, S. Muenchen, S. Newport, S. Saintpaul) were analyzed. P1, P2, and P4 (selected based on dose response assay results) were added to the assay at their MICs to determine their effect on different serovars. Inhibition was determined using criteria from above.

[6] = test system: Salmonella Brenderup; test: MIC against serovars; type: cell-based
Method: as §1

[7] = test system: Salmonella Saintpaul; test: MIC against serovars; type: cell-based
Method: as §1

Sequence: NPSRQERR [Peptide P1]
- MIC50 [1]: 14.7 mM
- Growth inhibition against APEC serotypes [2]: 95.1-100%
- Bodyweight [3]: no significant effect
- Bodyweight [4]: no significant effect
- MIC [5]: 18 mM
- MIC [6]: 18 mM
- MIC [7]: 18 mM
